In publication PMC7870626, “Neurotoxicity and underlying cellular changes of 21 mitochondrial respiratory chain inhibitors” (Archives of Toxicology, 2021):
pEC50: −log10 of the molar value. Read-outs that look alike come from different tables or passages of the source.

What was measured:
SH-SY5Y cells = test: Mitochondrial membrane potential (rhodamine 123), KE2 assay; type: cell-based, human; settings: for EC25: Homo sapiens; for Ratios of EC25 KE4/KE2 MMP: NeuriTox neurite EC25 relative to SH-SY5Y MMP EC25
Method: Cells were plated at a cell density of 29,500 cells/cm^2 and handled as described above for the neurite SH-SY5Y degeneration. On d6 of differentiation, 50% of the medium was replaced by differentiation medium containing 2 µM Rhodamine 123 (ThermoFisher). After 45 min of preloading at 37 °C with 5% CO2 in darkness, the Rhodamine 123 solution was completely removed and cells were carefully washed once with 200 µl DMEM:F12. Subsequently, 50 µl differentiation medium per well were added followed by the addition of 50 µl/well of test compounds in medium. After 24 h of exposure to the test compounds, the nuclei were stained for 30 min with 20 µL of a solution containing 20 µM Hoechst 33342, and the images were then acquired with a 10 × objective lens using the ImageXpress® Micro (Molecular Devices) high content microplate imager. Nuclei were evaluated in the DAPI channel (excitation 377 ± 50 nm, emission 447 ± 60 nm), whereas Rhodamine 123 fluorescence was detected in the FITC channel (excitation 475 ± 34 nm, emission 536 ± 40 nm). Analysis of the Hoechst 33,342 and Rhodamine 123 fluorescence was performed using the MetaXpress® Software (Molecular Devices) with the Transfluor HT plug-in and the parameters nuclei (for Hoechst-33342) and integrated granule intensity (for Rhodamine 123). Mitochondrial membrane potential (MMP) was quantified as the total fluorescence intensity of Rhodamine 123 in relation to the number of Hoechst-stained nuclei.

HepG2 cells = test: HepG2-based respirometry, total cell respiration (earlier study); settings: NeuriTox neurite EC25 relative to cell respiration EC25; respirometric data from HepG2-based assays ref van der Stel et al. 2020
proteasome = test: Proteasomal activity (KE3 assay) in LUHMES cells; type: cell-based, human; settings: for Ratios of EC25 KE4/KE3 proteasomal: NeuriTox neurite EC25 relative to proteasomal activity EC25, LUHMES
Method: Activity of the proteasome was quantified as described in (Gutbier et al. [2018b]). Briefly, after exposure, culture medium was replaced by assay buffer containing a cell-permeable proteasomal substrate (MeOSuc-Gly-Leu-Phe-AMC, 25 µM (Bachem, Bubendorf, Switzerland) in HBSS). Its AMC-fluorescence (ex: 360 nm, em: 465 nm) increases with proteasomal activity and was monitored for 90 min. Background-corrected data were used for further analysis.

[1] = tested on: MRC complex (cI, cII or cIII); test: HepG2-based MRC complex assay in permeabilized cells (earlier study); type: cell-based; settings: NeuriTox neurite EC25 relative to complex assay EC25 in permeabilized cells; respirometric data from HepG2-based assays ref van der Stel et al. 2020
LUHMES cells [2] = test: Intracellular ATP content after NeuriTox exposure; type: cell-based; settings: Homo sapiens, 24 h
Method: (§1) The NeuriTox test was performed as previously described (Delp et al. [2018b]; Krug et al. [2013a]; Stiegler et al. [2011]). Briefly, cells differentiated for 48 h were re-seeded into 96-well plates at a density of 100,000 cells/cm^2 in DM without cAMP and GDNF, and treated 1 h after seeding for 24 h. Subsequently, multiple endpoints were determined, e.g., neurite outgrowth (i.e., NeuriTox test), resazurin reduction, intracellular ATP content, gene expression levels from TempO-Seq analysis, and proteasomal activity. For the 120 h exposure scenario, LUHMES cells were differentiated for another 3 days after reseeding before they were treated on day 5 (d5) and d7 by a half medium exchange. Endpoints were determined on d10 of differentiation.
Plates from the NeuriTox test were further used after imaging for determination of alternative endpoints. Intracellular ATP was determined as described earlier (Delp et al. [2019]). In brief, CellTiterGlo 2.0 assay mix (Promega) containing luciferase was added after imaging, and luminescence was recorded. For the determination of resazurin reduction, a 10 × resazurin stock solution was added after imaging to the medium (final resazurin concentration 2 µg/ml) (Delp et al. [2018a]). After 60 min incubation, resazurin fluorescence was recorded (ex: 530 nm, em: 590 nm). Background-corrected data was used for further analysis.

U2OS cells = test: cells; type: cell-based; settings: Homo sapiens, 24 h
Method: A cell suspension of 100,000 cells/ml was prepared in assay medium, and white 384-well plates were filled with 30 µl/well cell suspension. Twenty-four hours after seeding, a dilution series of test compound, as well as positive and negative controls, were added to the cells. After 24 h exposure, the medium was removed, and 10 µl of Triton X-100 lysis buffer was added to each well. The luminescent signal was determined in a luminometer by injecting BDS Illuminate Mix and measuring the light emission. The Cytotox CALUX cell line constitutively expresses a high level of luciferase protein; the light emission is therefore proportional to the cell number of live cells, and its decrease can be used as measure of cytotoxicity. The light emission generated by cells exposed to vehicle control was set to 100%, and the luminescence of cells exposed to the positive control toxicant tributyltin acetate [100 µM] was set to 0%. The light output of the cells exposed to different concentrations of test compounds was scaled accordingly.

LUHMES cells [3] = test: NeuriTox test: neurite area and viability, 24 h; type: cell-based, human
Method: as §1
Image acquisition and analysis was performed as described previously (Krug et al. [2013a]; Schildknecht et al. [2013]; Stiegler et al. [2011]). In brief, cells were live-stained with 1 µg/ml Hoechst H-33342 and 1 µM calcein-AM and image acquisition was done by an automated high content imager (Cellomics, Waltham, MA, USA). Cell viability was determined as ratio of live cells (cell bodies being Calcein- and Hoechst-positive) relative to the total amount of cells (Hoechst-positive cell bodies). Neurite area was calculated by subtracting the somatic area (Hoechst-positive area plus surrounding) from the calcein-positive area.

[4] = SH-SY5Y differentiated 6 days, treated 24 h, rhodamine-123, read-out: pEC25 MMP (concentration where MMP was reduced by 25%) (converted)
[5] = NeuriTox exposure scheme, read-out: LUHMES 24 h EC25 ATP (converted)
[6] = U2OS osteosarcoma cells, luminescence of constitutively expressed luciferase, read-out: Cytotox EC25 U2OS (converted)
[7] = Homo sapiens, NeuriTox exposure scheme, 24 h, read-out: LUHMES 24 h EC25 NA (neurite area) (converted)
[8] = Homo sapiens, NeuriTox exposure scheme, 24 h, read-out: LUHMES 24 h EC25 V (viability) (converted)
[9] = Homo sapiens, NeuriTox test, neurite outgrowth impairment, LUHMES 24 h, read-out: EC25 KE4 (AO) Neurite toxicity (converted)

| Compound | EC25 (SH-SY5Y cells; [4]) | Ratios of EC25 KE4/KE2 MMP (SH-SY5Y cells) | Ratios of EC25 KE4/KE1 total respiration (HepG2 cells) | Ratios of EC25 KE4/KE3 proteasomal (proteasome) | Ratios of EC25 KE4/KE1 complex assay [1] | EC25 (LUHMES cells [2]; [5]) | EC25 (U2OS cells; [6]) | Offset between neurite endpoint (LUHMES/SH-SY5Y) and U2OS viability (LUHMES cells [3]) | EC25 (LUHMES cells [3]; [7]) | EC25 (LUHMES cells [3]; [8]) | EC25 (LUHMES cells [3]; [9]) | also measured |
| --- | --- | --- | --- | --- | --- | --- | --- | --- | --- | --- | --- | --- |
| CCCCCC[C@H]1C(=O)O[C@H](C)[C@H](NC(=O)c2cccc(NC=O)c2O)C(=O)O[C@@H](C)[C@@H]1OC(=O)CC(C)C [Antimycin A] | 0.0631 µM | 257 | 1580 | 1.1 | 1580 | 25.1 µM | 100 µM | potentially strong neurite-specific toxicant | 15.8 µM | > 50.1 µM | 15.8 µM | – |
| COc1cc(CNC(=O)CCCC/C=C/C(C)C)ccc1O [Capsaicin] | > 10 µM | – | – | – | – | > 50.1 µM | 63.1 µM | – | > 50.1 µM | > 50.1 µM | – | – |
| CC1=C(C(=O)Nc2ccccc2)SCCO1 [Carboxin] | 1.58 µM | 48 | < 8 | < 0.8 | 32 | > 100 µM | > 100 µM | – | 79.4 µM | > 100 µM | 79.4 µM | Decrease of the MMP reached (SH-SY5Y cells; SH-SY5Y, 24 h, non-cytotoxic concentrations): at least 50% |
| Cc1ccc(-c2c(Cl)nc(C#N)n2S(=O)(=O)N(C)C)cc1 [Cyazofamid] | 0.2 µM | 225 | – | – | < 5 | > 50.1 µM | 100 µM | – | 50.1 µM | > 50.1 µM | 50.1 µM | Precipitation in the assay (LUHMES cells [3]; LUHMES NeuriTox concentration range): precipitate in the active concentration range |
| COc1cc2c(cc1OC)[C@@H]1C(=O)c3ccc4c(c3O[C@@H]1CO2)C=CC(C)(C)O4 [Deguelin] | 0.316 µM | 13 | 32 | 0.7 | 250 | 10 µM | > 50.1 µM | > tenfold offset | 3.98 µM | 50.1 µM | 3.98 µM | pEC50 (LUHMES cells [3]; Homo sapiens, read-out: EC10V (10% reduction of viability), NeuriTox assay, LUHMES 24 h): 4.89 |
| Cc1ccccc1C(=O)Nc1cccc(OC(C)C)c1 [Mepronil] | 5.01 µM | – | – | > 0.8 | > 5.0 | > 100 µM | > 100 µM | – | 100 µM | > 100 µM | > 100 µM | – |
| COC(=O)N(OC)c1ccccc1COc1ccn(-c2ccc(Cl)cc2)n1 [Pyraclostrobin] | 0.316 µM | 85 | 100 | 0.7 | 400 | 12.6 µM | > 100 µM | – | 25.1 µM | > 50.1 µM | 25.1 µM | – |
| CCOCCc1ccc(OCCN=c2[nH]cnc(CC)c2Cl)c(C)c1C [Pyrimidifen] | 0.794 µM | 21 | 1260 | 1.1 | 15850 | 20 µM | 100 µM | – | 15.8 µM | 39.8 µM | 15.8 µM | – |
| C=C(C)[C@H]1Cc2c(ccc3c2O[C@@H]2COc4cc(OC)c(OC)cc4[C@@H]2C3=O)O1 [Rotenone] | – | 2.1 | 1.3 | 0.01 | 7.9 | – | – | > 100 fold | – | – | – | EC25 (SH-SY5Y cells; SH-SY5Y, 24 h, read-out: pEC25 MMP (concentration where MMP was reduced by 25%)): 0.0398 µM; Potency on neurotoxicity (KE4/AO) relative to proteostasis (KE3) (proteasome; LUHMES): 100 times; Proteasomal function (in words) (proteasome; d2 LUHMES, 22 h incubation): reduced proteasome function at non-cytotoxic concentrations; EC25 (LUHMES cells [2]; read-out: LUHMES 24 h EC25 ATP): 5.01 µM; EC25 (U2OS cells; U2OS, read-out: Cytotox EC25 U2OS): 31.6 µM; EC25 (LUHMES cells [3]; Homo sapiens, 24 h, read-out: EC25 KE4 (AO) Neurite toxicity): 0.0794 µM; EC25 (LUHMES cells [3]; Homo sapiens, 24 h, read-out: LUHMES 24 h EC25 NA (neurite area)): 0.0794 µM; EC25 (LUHMES cells [3]; Homo sapiens, 24 h, read-out: LUHMES 24 h EC25 V (viability)): > 10 µM |
| Cc1nc(C(F)(F)F)c(C(=O)Nc2c(Br)cc(OC(F)(F)F)cc2Br)s1 [Thifluzamide] | > 10 µM | – | < 2 | 1.1 | 2.5 | 20 µM | 20 µM | – | 20 µM | 63.1 µM | 20 µM | – |
